# From patent publication US20050014680A1, “Methods and compositions for enhancing neuron growth and survival” (priority 2003, published 2005)
# B1: BDNF: recombinant BDNF (Gibco), a neurotrophin (protein, UniProt P23560 19-247, looked up)
# Neurotrophic factor BDNF …: APMKEANIRGQGGLAYPGVRTHGTLESVNGPKAGSRGLTSLADTFEHVIEELLDEDQKVRPNEENNKDADLYTSRVMLSSQVPLEPPLLFLLEEYKNYLDAANMSMRVRRHSDPARRGELSVCDSISEWVTAADKKTAVDMSGGTVTVLEKVPVSKGQLKQYFYETKCNPMGYTKEGCRGIDKRHWNSQCRTTQSYVRALTMDSKKRIGWRFIRIDTSCVCTLTIKRGR
# B2: Sema3A: semaphorin 3-A, induces growth cone collapse (protein, UniProt Q14563 21-771, looked up)
# Semaphorin-3A: NYQNGKNNVPRLKLSYKEMLESNNVITFNGLANSSSYHTFLLDEERSRLYVGAKDHIFSFDLVNIKDFQKIVWPVSYTRRDECKWAGKDILKECANFIKVLKAYNQTHLYACGTGAFHPICTYIEIGHHPEDNIFKLENSHFENGRGKSPYDPKLLTASLLIDGELYSGTAADFMGRDFAIFRTLGHHHPIRTEQHDSRWLNDPKFISAHLISESDNPEDDKVYFFFRENAIDGEHSGKATHARIGQICKNDFGGHRSLVNKWTTFLKARLICSVPGPNGIDTHFDELQDVFLMNFKDPKNPVVYGVFTTSSNIFKGSAVCMYSMSDVRRVFLGPYAHRDGPNYQWVPYQGRVPYPRPGTCPSKTFGGFDSTKDLPDDVITFARSHPAMYNPVFPMNNRPIVIKTDVNYQFTQIVVDRVDAEDGQYDVMFIGTDVGTVLKVVSIPKETWYDLEEVLLEEMTVFREPTAISAMELSTKQQQLYIGSTAGVAQLPLHRCDIYGKACAECCLARDPYCAWDGSACSRYFPTAKRRTRRQDIRNGDPLTHCSDLHHDNHHGHSPEERIIYGVENSSTFLECSPKSQRALVYWQFQRRNEERKEEIRVDDHIIRTDQGLLLRSLQQKDSGNYLCHAVEHGFIQTLLKVTLEVIDTEHLEELLHKDDDGDGSKTKEMSNSMTPSQKVWYRDFMQLINHPNLNTMDEFCEQVWKRDRKQRRQRPGHTPGNSNKWKHLQENKKGRNRRTHEFERAPRSV
# Key:
# [1] = test system: NFATc4; assay: Cytoplasmic-to-nuclear translocation of EGFP-NFATc4 in cortical neurons; type: cell-based, mouse and rat
# Experimental: (§1) The reporter plasmid NFAT-Luciferase and the EGFP-NFATc4 plasmid have been described elsewhere (Graef et al., 1999). The TrkA constructs have been previously described (Ming et al., 1999). For luciferase assays the cells were treated 16 hrs after transfection with 100 ng/ml recombinant BDNF (Gibco) or 100 ng/ml recombinant NGF. For studies with FK506/CsA the cells were preincubated for 10 min with the inhibitors before stimulation and the inhibitors were present during the stimulation. Cells were lysed for luciferase assays 18 hrs after stimulation and luciferase assays performed according to standard protocols. For microscopy, neurons were fixed in 4% formaldehyde/PBS. Co-transfected m yc-epitope tagged Trk-A was visualized by staining with anti-myc antibody (clone 4E10, Pharmingen), followed by Alexa-594 conjugated goat anti-mouse antibody (Molecular Probes).
# [2] = test system: NFAT-dependent transcription; assay: NFAT-luciferase reporter assay in cortical neurons; type: cell-based, mouse and rat; conditions: E15.5 cultured cortical neurons, 100 ng/ml, lysed 18 hrs after stimulation
# Experimental: as §1
# [3] = test system: dissociated E10.5 trigeminal neurons; assay: Survival assay, Tunel staining of low-density dissociated E10.5 trigeminal neurons; type: cell-based, mouse; conditions: serum-free medium, 24 hr; 150 nM Kn252a; 100 ng/ml FK506, 1 μg/ml CsA
# Source text: Embryos were obtained from timed pregnancies with the noon of the plug date defined as […]. For whole-mount studies, embryos were processed and stained with anti-Neurofilament antibody (clone 2H3, DSHB) and processed for DAB or fluorescent staining. Sections were stained with anti-NF-M antibody, anti-TAG-1 antibody, anti-Lim1/2, anti-Pax7, anti-Nkx2.2, anti HNF-3b, anti-islet-1 (all from DSHB), Tuj-1 (ABR) and anti-TrkC (Chemicon). Secondary antibodies used were HRP conjugated goat anti-mouse antibody (Jackson Immunoresearch), Alexa-594 and Alexa-488 conjugated goat anti-mouse antibody (Molecular Probes) as well as anti-mouse and anti-rabbit ABC kits (Vector). Tunel assays were performed according to the manufacturer's recommendations (Roche).
# Trigeminal ganglia were incubated for 5 minutes at 37° C. with 10 mg/ml trypsin (Sigma)+DNAse (Sigma) in calcium- and magnesium-free (CMF) HBSS. After removal of the trypsin solution, the ganglia were washed 3 times with Hams F12 medium containing 10% heat-inactivated horse serum washed 3 times with CMF-HBSS and were gently triturated in 1 ml CMF-HBSS+DNAse with a fire-polished, siliconised Pasteur pipettes to give a single cell suspension. […]
# [4] = test system: trigeminal neuron growth cones; assay: Growth cone morphology and collapse, trigeminal explant cubes stained with phalloidin; type: cell-based, mouse; conditions: c2/c3/c4 triple mutant ganglia or wild-type ganglia cultured with CsA and FK506, 30 min
# Experimental: E10.5 trigeminal explants were cultured in either collagen or matrigel (Becton-Dickinson) gels in the presence of NT-3 (Gibco) and NGF (Gibco) as previously described (O'Connor and Tessier-Lavigne, 1999). The explants were then fixed in 4% PFA/PBS and axons were visualized by wholemount immunostaining with the anti-NF-M antibody (O'Connor and Tessier-Lavigne, 1999). For cultures on laminin, eight-well chamber tissue culture slides were coated with poly-L-lysine followed by laminin. Trigeminal ganglia were either dissociated or cut into small cubes and cultured in medium supplemented with NT-3 and NGF. For assessing growth cone morphology cells were fixed with 25% sucrose in 4% PFA/PBS and stained with either Alexa 594-phalloidin (Molecular Probes) alone or plus anti-III β-tubulin antibody (Tuj-1, Covance).
molecule,measurement,setting,value
"NGF: recombinant NGF, nerve growth factor, a neurotrophin","nuclear translocation of EGFP-NFATc4, no TrkA transfected",[1]; E15.5 cortical neurons lacking TrkA (data not shown),did not induce translocation
same,"nuclear translocation of EGFP-NFATc4, TrkA co-transfected","[1]; cortical neurons co-transfected with EGFP-NFATc4 and TrkA, 100 ng/ml NGF",led to rapid translocation of EGFP-NFATc4 into the nucleus
same,activation of NFAT-dependent transcription,[2],did not activate transcription from this reporter unless TrkA was introduced
COC(=O)[C@@]1(O)C[C@H]2O[C@]1(C)n1c3ccccc3c3c4c(c5c6ccccc6n2c5c31)C(=O)NC4 [Kn252a],cell death (Tunel-positive cells),[3],even greater degree of cell death
B1,time to nuclear translocation of EGFP-tagged NFATc4,"[1]; E15.5 cortical neurons, 100 ng/ml BDNF",≤ 30 min
same,activation of NFAT-dependent transcription,[2],powerful activator of NFAT-dependent transcription
B2,collapse of growth cones on matrigel,[4],induced efficient collapse of growth cones
